Test results: patent publication US6372297B1, “Wood preservative oxathiazines” (Uniroyal Chemical Company, Inc., priority 1993, dated 2002)

Columns and labels:
[1] = system: blue-stain fungi and molds; experiment: Activity against blue-stain fungi and molds on a stick test on vermiculite (paint film); set-up: key to Surface score of wooden sticks treated with paint formulation, C. cladosporioides / Surface score of wooden sticks treated with paint formulation, P. purpurogenum / Surface score of wooden sticks treated with paint formulation, P. violacea / Surface score of wooden sticks treated with paint formulation, R rubra (y) / Surface score of wooden sticks treated with paint formulation, S. chartarum / Surface score of wooden sticks treated with paint formulation, A. versicolor / Surface score of wooden sticks treated with paint formulation, A. pullulans: 0: No growth; Trace of growth of up to 1% coverage of the test inoculated area; 2: Growth covering between 1 and 10% of the inoculated test area; Growth covering between 10 and 30% of the inoculated test area; 4: Growth covering between 30 and 70% of the inoculated test area; 5: Growth covering more than 70t of the inoculated test area; settings: 12 weeks on vermiculite; for Surface score of wooden sticks treated with paint formulation, R rubra (y): R rubra (yeast)
Method: Beech sticks (73×18×2 mm) Fagus sylvatica were painted, allowed to dry, and sterilized by γ-radiation (1.2 mRad). […] The coated sticks prepared above were then dipped in a spore suspension of pure culture of each fungus. Seven sticks each were placed in autoclaved Petri dishes (200 mm in diameter, 30 mm in height) containing 300 ml of vermiculite and 120 ml of water, and incubated for 12 weeks. The surfaces of the sticks were then examined for the growth of fungus and were evaluated according to the following scoring system: 0: No growth 1: […] 2: […] 3: […] 4. […] 5. Growth covering more than 70t of the inoculated test area.

[2] = system: mixed spore suspension of blue-stain fungus and molds; experiment: Activity against blue-stain fungi and molds in a mold cabinet test (BS3900: Part G6); set-up: key: 0: No growth; Trace of growth of up to 1% coverage of the test inoculated area; 2: Growth covering between 1 and 10% of the inoculated test area; Growth covering between 10 and 30% of the inoculated test area; 4: Growth covering between 30 and 70% of the inoculated test area; 5: Growth covering more than 70t of the inoculated test area
Method: Using the methods described in BS3900: Part G6: 1989, British Standard Methods of test for paints, “Assessment of resistance to fungal growth”, representative compounds of this invention were tested for activity against blue-stain fungus and molds in a mold cabinet test. In brief, sticks of Scots pine (Pinus sylvestris) measuring 75×100×10 mm, were painted, allowed to dry, and sterilized by […] (1.2 mRad). […] The sticks were then with each solution. The inoculation consisted of dipping the sticks in a mixed spore suspension, then placing them in a mold chamber and incubating them for 12 weeks. The surfaces were evaluated according the following score system: 0: No growth 1: […] 2: […] 3: […] 4. […] 5. Growth covering more than 70% of the inoculated test area.

[3] = system: mixed spore suspension: Aureobasidium pullulans, Aspergillus amstelodami, Ceratocystis pilifera, Cladosporium sp., Penicillium sp., Sclerophomas entoxylina …; experiment: Control of molds and sapstain fungi in mini-board test; set-up: key to Surface score of treated mini-boards, 3 week incubation, 1500 ppm / Surface score of treated mini-boards, 3 week incubation, 2500 ppm: 0: Free of fungal growth; 1: Traces of fungal growth; 2: Little fungal growth; 3: Moderate fungal growth; 4: Vigorous to maximum growth (all surfaces covered with fungal growth)
Excerpt: Representative compounds of this invention to be tested, were suspended in an aqueous solution containing 7.5% GENAPOL X 080™ (Hoechst-Celanese Corporation), and 20% propylene glycol monomethyl ether, to prepare the test solutions. […]
Deep frozen boards (300×50×10 mm) of freshly felled sapwood of Pinus sylvestrus (mini-boards) were thawed at room temperature. One half of each mini-board was immersed in a test solution for 20 seconds. The mini-boards were then sprayed with mixed spore suspension containing the following fungi:
Sclerophomas entoxylina, and
and stored in incubation boxes at 25° C. and at 100% relative humidity, for three weeks. For each compound tested, each concentration of test solution was applied to five different mini-boards.
The efficacy of the test compounds was determined by comparing the fungal growth on both the treated and untreated parts of the mini-boards.
The degree of infection was scored according to the following scale:
1=Traces of fungal growth
4=Vigorous to maximum growth (all surfaces covered with fungal growth)

| Compound | Surface score of wooden sticks treated with paint formulation, A. pullulans ([1]; 0.15% a.i. in paint) | Surface score of wooden sticks treated with paint formulation, A. pullulans ([1]; 0.3% a.i. in paint) | Surface score of wooden sticks treated with paint formulation, A. versicolor ([1]; 0.15% a.i. in paint) | Surface score of wooden sticks treated with paint formulation, A. versicolor ([1]; 0.3% a.i. in paint) | Surface score of wooden sticks treated with paint formulation, C. cladosporioides ([1]; 0.15% a.i. in paint) | Surface score of wooden sticks treated with paint formulation, C. cladosporioides ([1]; 0.3% a.i. in paint) | Surface score of wooden sticks treated with paint formulation, P. purpurogenum ([1]; 0.15% a.i. in paint) | Surface score of wooden sticks treated with paint formulation, P. purpurogenum ([1]; 0.3% a.i. in paint) | Surface score of wooden sticks treated with paint formulation, P. violacea ([1]; 0.15% a.i. in paint) | Surface score of wooden sticks treated with paint formulation, P. violacea ([1]; 0.3% a.i. in paint) | Surface score of wooden sticks treated with paint formulation, R rubra (y) ([1]; 0.15% a.i. in paint) | Surface score of wooden sticks treated with paint formulation, R rubra (y) ([1]; 0.3% a.i. in paint) | Surface score of wooden sticks treated with paint formulation, S. chartarum ([1]; 0.15% a.i. in paint) | Surface score of wooden sticks treated with paint formulation, S. chartarum ([1]; 0.3% a.i. in paint) | Surface score of wooden sticks treated with paint formulation, U. atrum ([1]; 0.15% a.i. in paint) | Surface score of wooden sticks treated with paint formulation, U. atrum ([1]; 0.3% a.i. in paint) | Surface score in a paint formulation in a mold cabinet test, 6 weeks ([2]; 0.15% in water-based paint) | Surface score in a paint formulation in a mold cabinet test, 12 weeks ([2]; 0.15% in water-based paint) | Surface score in a paint formulation in a mold cabinet test, 6 weeks ([2]; 0.3% in water-based paint) | Surface score in a paint formulation in a mold cabinet test, 12 weeks ([2]; 0.3% in water-based paint) | other results |
| --- | --- | --- | --- | --- | --- | --- | --- | --- | --- | --- | --- | --- | --- | --- | --- | --- | --- | --- | --- | --- | --- |
| O=S1(=O)CCON=C1c1cc(Br)cs1 [Compound 42] | 2 (Growth covering between 1 and 10% of the inoculated test area) | 1 (Trace of growth of up to 1% coverage of the test inoculated area) | 2 (Growth covering between 1 and 10% of the inoculated test area) | 1 (Trace of growth of up to 1% coverage of the test inoculated area) | 2 (Growth covering between 1 and 10% of the inoculated test area) | 1 (Trace of growth of up to 1% coverage of the test inoculated area) | 4 (Growth covering between 30 and 70% of the inoculated test area) | 2 (Growth covering between 1 and 10% of the inoculated test area) | 4 (Growth covering between 30 and 70% of the inoculated test area) | 3 (Growth covering between 10 and 30% of the inoculated test area) | 3 (Growth covering between 10 and 30% of the inoculated test area) | 1 (Trace of growth of up to 1% coverage of the test inoculated area) | 3 (Growth covering between 10 and 30% of the inoculated test area) | 2 (Growth covering between 1 and 10% of the inoculated test area) | 5 (Growth covering more than 70t of the inoculated test area) | 3 (Growth covering between 10 and 30% of the inoculated test area) | 1.5 | 3.5 | 0.5 | 3.0 | Surface score of treated mini-boards, 3 week incubation, 1500 ppm [3]: 0; Surface score of treated mini-boards, 6 week incubation, 1500 ppm [3]: 2.0; Surface score of treated mini-boards, 3 week incubation, 2500 ppm [3]: 0; Surface score of treated mini-boards, 6 week incubation, 2500 ppm [3]: 2.6 |
| Cc1ccsc1C1=NOCCS1(=O)=O [Compound 37] | 3 (Growth covering between 10 and 30% of the inoculated test area) | 2 (Growth covering between 1 and 10% of the inoculated test area) | 2 (Growth covering between 1 and 10% of the inoculated test area) | 1 (Trace of growth of up to 1% coverage of the test inoculated area) | 3 (Growth covering between 10 and 30% of the inoculated test area) | 0 | 3 (Growth covering between 10 and 30% of the inoculated test area) | 1 (Trace of growth of up to 1% coverage of the test inoculated area) | 5 (Growth covering more than 70t of the inoculated test area) | 4 (Growth covering between 30 and 70% of the inoculated test area) | 4 (Growth covering between 30 and 70% of the inoculated test area) | 3 (Growth covering between 10 and 30% of the inoculated test area) | 1 (Trace of growth of up to 1% coverage of the test inoculated area) | 0 | 4 (Growth covering between 30 and 70% of the inoculated test area) | 3 (Growth covering between 10 and 30% of the inoculated test area) | 4.0 | 5.0 | 0 | 0 | Surface score of treated mini-boards, 3 week incubation, 1500 ppm [3]: 0; Surface score of treated mini-boards, 6 week incubation, 1500 ppm [3]: 0.8; Surface score of treated mini-boards, 3 week incubation, 2500 ppm [3]: 0; Surface score of treated mini-boards, 6 week incubation, 2500 ppm [3]: 0.4 |
| [O-][S+]1CCON=C1c1cc(Br)cs1 (stereo not drawn) [Compound 41] | 0 | 0 | 0 | 0 | 0 | 0 | 2 (Growth covering between 1 and 10% of the inoculated test area) | 1 (Trace of growth of up to 1% coverage of the test inoculated area) | 4 (Growth covering between 30 and 70% of the inoculated test area) | 3 (Growth covering between 10 and 30% of the inoculated test area) | 3 (Growth covering between 10 and 30% of the inoculated test area) | 0 | 4 (Growth covering between 30 and 70% of the inoculated test area) | 0 | 3 (Growth covering between 10 and 30% of the inoculated test area) | 1 (Trace of growth of up to 1% coverage of the test inoculated area) | 0 | 2.0 | 0.5 | 3.0 | Surface score of treated mini-boards, 3 week incubation, 1500 ppm [3]: 0.6; Surface score of treated mini-boards, 6 week incubation, 1500 ppm [3]: 2.4; Surface score of treated mini-boards, 3 week incubation, 2500 ppm [3]: 0.2; Surface score of treated mini-boards, 6 week incubation, 2500 ppm [3]: 1.6 |
